From US20230321008A1, “INHIBITORS OF ACID SPHINGOMYELINASE FOR PREVENTING AND TREATING THE COVID-19 DISEASE” (priority 2020, published 2023)
“Also recorded” adds a separate entry of the source.

Experiments:
[1] = test system: severe COVID-19; experiment: Example 2: multicenter observational retrospective cohort study, FIASMA medication use at baseline and intubation or death in patients hospitalized for severe COVID-19; assay type: in vivo, human; settings: vs no FIASMA medication
From the text: We included all adults aged 18 years or over who have been hospitalized in these medical centers for severe COVID-19. COVID-19 was ascertained by a positive reverse-transcriptase-polymerase-chain-reaction (RT-PCR) test from analysis of nasopharyngeal or oropharyngeal swab specimens. Severe COVID-19 at admission was defined as having at least one of the following criteria: respiratory rate > 24 breaths/min or < 12 breaths/min, resting peripheral capillary oxygen saturation in ambient air < 90%, temperature > 40° C., systolic blood pressure < 100 mm Hg or high lactate levels. AP-HP clinical Data Warehouse initiatives ensure patient information and informed consent regarding the different approved studies through a transparency portal in accordance with European Regulation on data protection and authorization n°1980120 from National Commission for Information Technology and Civil Liberties (CNIL).
We used data from the AP-HP Health Data Warehouse (‘Entrepôt de Données de Santé (EDS)’). This warehouse contains all available clinical data on all inpatient visits for COVID-19 to any Greater Paris University hospital. The data included patient demographic characteristics, vital signs, laboratory test and RT-PCR test results, medication administration data, medication lists during current and past hospitalizations in AP-HP hospitals, current diagnoses, discharge disposition, and death certificates.
We obtained the following data for each patient at the time of the hospitalization: sex; age, which was categorized into 4 classes based on the OpenSAFELY study results (i.e. 18-50, 51-70, 71-80, 81+); hospital, which was categorized into 4 classes following the administrative clustering of AP-HP hospitals in Paris and its suburbs based on their geographical location (i.e., AP-HP Centre - Paris University, Henri Mondor University Hospitals and at home hospitalization; AP-HP Nord and Hôpitaux Universitaires Paris Seine-Saint-Denis; AP-HP Paris Saclay University; and AP-HP Sorbonne University); obesity, which was defined as having a body mass index higher than 30 kg/m^2 or an International Statistical Classification of Diseases and Related Health Problems (ICD-10) diagnosis code for obesity (E66.0, E66.1, E66.2, E66.8, E66.9); self-reported current smoking status; and any medication prescribed according to compassionate use or as part of a clinical trial (e.g. hydroxychloroquine, azithromycin, remdesivir, tocilizumab, sarilumab, or dexamethasone). To take into account possible confounding by indication bias for FIASMA medication, we recorded whether patients had any current diagnosis, based on ICD-10 diagnosis codes, for neoplasms and diseases of the blood (C00-D89); mental disorders (F01-F99); diseases of the nervous system (G00-G99); cardiovascular disorders (I00-I99); respiratory disorders (J00-J99); digestive disorders (K00-K95); dermatological disorders (L00-L99); diseases of the musculoskeletal system (M00-M99); diseases of the genitourinary system (N00-N99); endocrine disorders (E00-E89); and eye-ear-nose-throat disorders (H00-H95).
All medical notes and prescriptions are computerized in Greater Paris University hospitals. Medications including their dosage, frequency, date, and mode of administration were identified from medication administration data or scanned handwritten medical prescriptions, through two deep learning models based on BERT contextual embeddings, one for the medications and another for their mode of administration. The model was trained on the APmed corpus, a previously annotated dataset for this task. Extracted medications names were then normalized to the Anatomical Therapeutic Chemical (ATC) terminology using approximate string matching.
FIASMA medication use was defined as receiving at least one FIASMA medication at study baseline, i.e. within the first 24 hours of hospital admission, and before the end of the index hospitalization, intubation or death.

[2] = biological target: T1, acid sphingomyelinase (ASM) (Homo sapiens, UniProt P17405); settings: cited from earlier work
T1 sequence (P17405 47-631): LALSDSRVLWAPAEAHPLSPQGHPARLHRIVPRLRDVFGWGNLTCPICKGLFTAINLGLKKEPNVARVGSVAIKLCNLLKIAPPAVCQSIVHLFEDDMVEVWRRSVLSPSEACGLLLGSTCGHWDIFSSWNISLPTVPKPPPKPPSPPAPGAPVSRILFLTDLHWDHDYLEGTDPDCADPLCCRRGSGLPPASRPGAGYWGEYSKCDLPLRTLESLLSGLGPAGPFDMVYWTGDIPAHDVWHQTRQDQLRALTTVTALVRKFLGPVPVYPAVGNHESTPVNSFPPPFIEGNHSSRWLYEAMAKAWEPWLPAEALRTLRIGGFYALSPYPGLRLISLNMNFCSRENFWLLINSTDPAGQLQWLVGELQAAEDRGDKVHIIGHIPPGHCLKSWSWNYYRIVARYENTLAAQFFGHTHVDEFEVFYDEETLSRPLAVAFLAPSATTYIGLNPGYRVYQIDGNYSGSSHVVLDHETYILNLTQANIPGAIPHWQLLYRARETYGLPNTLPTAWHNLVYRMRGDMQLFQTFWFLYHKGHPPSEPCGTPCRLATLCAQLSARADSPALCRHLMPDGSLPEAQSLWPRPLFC

[3] = biological target: Sigma-1 receptors (S1R) (Homo sapiens, UniProt Q99720); settings: cited from earlier work
Sequence of Sigma-1 receptors (S1R) (Q99720 whole entry): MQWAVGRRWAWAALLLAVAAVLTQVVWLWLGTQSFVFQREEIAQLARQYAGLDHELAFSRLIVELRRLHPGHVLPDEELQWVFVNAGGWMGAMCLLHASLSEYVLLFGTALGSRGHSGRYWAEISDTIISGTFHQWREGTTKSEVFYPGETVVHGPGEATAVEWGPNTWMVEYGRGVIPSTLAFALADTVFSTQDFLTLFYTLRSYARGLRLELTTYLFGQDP

[4] = test system: glia activation; settings: dependent on glia activation; cited from earlier work
[5] = test system: SARS-CoV-2; settings: in vitro; cited from earlier work
[6] = test system: ceramide-enriched membrane domains; settings: in vitro; cited from earlier work
[7] = test system: SARS-CoV-2; settings: cited from earlier work
[8] = test system: COVID-19; settings: human, in vivo; cited from earlier work

Structure (SMILES): CCCCc1oc2ccccc2c1C(=O)c1cc(I)c(OCCN(CC)CC)c(I)c1 [Amiodarone, amiodarone]
- Association of use at baseline with risk of intubation or death (in words) [1]: effective preventive and curative treatments for reducing risk of death or intubation

Structure (SMILES): O=C1CCc2ccc(OCCCCN3CCN(c4cccc(Cl)c4Cl)CC3)cc2N1 [Aripiprazole, aripiprazole]
- Association of use at baseline with risk of intubation or death (in words) [1]: effective preventive and curative treatments for reducing risk of death or intubation
- In vitro inhibition of acid sphingomyelinase (in words) [2]: in vitro inhibit acid sphingomyelinase with varying degrees
- Affinity for Sigma-1 receptors (in words) [3]: low or no affinity for S1R

Structure (SMILES): CN(C)CCCN1c2ccccc2Sc2ccc(Cl)cc21 [Chlorpromazine, chlorpromazine]
- Association of use at baseline with risk of intubation or death (in words) [1]: effective preventive and curative treatments for reducing risk of death or intubation
- In vitro inhibition of acid sphingomyelinase (in words) [2]: in vitro inhibit acid sphingomyelinase with varying degrees
- Affinity for Sigma-1 receptors (in words) [3]: low or no affinity for S1R
- Anti-inflammatory effect (in words) [4]: anti-inflammatory effect was observed

Structure (SMILES): Clc1ccc2c(c1)CCc1cccnc1C2=C1CCNCC1 [Desloratadine, desloratadine]
- Association of use at baseline with risk of intubation or death (in words) [1]: effective preventive and curative treatments for reducing risk of death or intubation

Structure (SMILES): CNCC[C@H](Oc1cccc2ccccc12)c1cccs1 [Duloxetine, duloxetine]
- In vitro inhibition of acid sphingomyelinase (in words) [2]: in vitro inhibit acid sphingomyelinase with varying degrees
- Affinity for Sigma-1 receptors (in words) [3]: low or no affinity for S1R

Structure (SMILES): CN(C)C(=O)C(CCN1CCC(O)(c2ccc(Cl)cc2)CC1)(c1ccccc1)c1ccccc1 [Loperamide, loperamide]
- Association of use at baseline with risk of intubation or death (in words) [1]: effective preventive and curative treatments for reducing risk of death or intubation
- In vitro inhibition of acid sphingomyelinase (in words) [2]: in vitro inhibit acid sphingomyelinase with varying degrees

Structure (SMILES): Fc1ccc([C@@H]2CCNC[C@H]2COc2ccc3c(c2)OCO3)cc1 [Paroxetine, paroxetine]
- In vitro inhibition of acid sphingomyelinase (in words) [2]: in vitro inhibit acid sphingomyelinase with varying degrees
- Inhibition of viral replication (in words) [5]: inhibition of viral replication was not observed
- Affinity for Sigma-1 receptors (in words) [3]: low or no affinity for S1R

Structure (SMILES): CN[C@H]1CC[C@@H](c2ccc(Cl)c(Cl)c2)c2ccccc21 [Sertraline, sertraline]
- In vitro inhibition of acid sphingomyelinase (in words) [2]: inhibited ASM; also recorded: in vitro inhibit acid sphingomyelinase with varying degrees
- Formation of ceramide-enriched membrane domains (in words) [6]: inhibited ASM and the formation of ceramide-enriched membrane domains
- Infection of Vero cells with SARS-CoV-2 (in words) [7]: prevented Vero cells from being infected with SARS-CoV-2
- Affinity for Sigma-1 receptors (in words) [3]: low or no affinity for S1R

Structure (SMILES): CC[C@H]1OC(=O)[C@H](C)[C@@H](O[C@H]2C[C@@](C)(OC)[C@@H](O)[C@H](C)O2)[C@H](C)[C@@H](O[C@@H]2O[C@H](C)C[C@H](N(C)C)[C@H]2O)[C@](C)(O)C[C@@H](C)CN(C)[C@H](C)[C@@H](O)[C@]1(C)O [azithromycin]
- Effect on mortality in patients hospitalized with COVID-19 (in words) [8]: non-significant effect on mortality

Structure (SMILES): CNCCCN1c2ccccc2CCc2ccccc21 [desipramine]
- In vitro inhibition of acid sphingomyelinase (in words) [2]: inhibited ASM; also recorded: in vitro inhibit acid sphingomyelinase with varying degrees
- Formation of ceramide-enriched membrane domains (in words) [6]: inhibited ASM and the formation of ceramide-enriched membrane domains
- Infection of Vero cells with SARS-CoV-2 (in words) [7]: prevented Vero cells from being infected with SARS-CoV-2

Structure (SMILES): O=C(CCCN1CCC(O)(c2ccc(Cl)cc2)CC1)c1ccc(F)cc1 [haloperidol]
- Anti-inflammatory effect (in words) [4]: anti-inflammatory effect was observed

Structure (SMILES): CCN(CCO)CCCC(C)Nc1ccnc2cc(Cl)ccc12 (stereo not shown) [hydroxychloroquine]
- Effect on mortality in patients hospitalized with COVID-19 (in words) [8]: non-significant effect on mortality

Structure (SMILES): CN(C)CCCN1c2ccccc2CCc2ccccc21 [imipramine]
- In vitro inhibition of acid sphingomyelinase (in words) [2]: inhibited ASM; also recorded: in vitro inhibit acid sphingomyelinase with varying degrees
- Formation of ceramide-enriched membrane domains (in words) [6]: inhibited ASM and the formation of ceramide-enriched membrane domains
- Infection of Vero cells with SARS-CoV-2 (in words) [7]: prevented Vero cells from being infected with SARS-CoV-2

Structure (SMILES): CNCCCC12CCC(c3ccccc31)c1ccccc12 [maprotiline]
- In vitro inhibition of acid sphingomyelinase (in words) [2]: inhibited ASM; also recorded: in vitro inhibit acid sphingomyelinase with varying degrees
- Formation of ceramide-enriched membrane domains (in words) [6]: inhibited ASM and the formation of ceramide-enriched membrane domains
- Infection of Vero cells with SARS-CoV-2 (in words) [7]: prevented Vero cells from being infected with SARS-CoV-2

Structure (SMILES): Cc1nc2n(c(=O)c1CCN1CCC(c3noc4cc(F)ccc34)CC1)CCCC2 [risperidone]
- Anti-inflammatory effect (in words) [4]: anti-inflammatory effect was observed

Structure (SMILES): C[C@@H]1CC[C@@]2(NC1)O[C@H]1C[C@H]3[C@@H]4CC=C5C[C@@H](O)CC[C@]5(C)[C@H]4CC[C@]3(C)[C@H]1[C@@H]2C [solasodine]
- In vitro inhibition of acid sphingomyelinase (in words) [2]: in vitro inhibit acid sphingomyelinase with varying degrees

Structure (SMILES): CCCCCCCCNC(C)C(O)c1ccc(SC(C)C)cc1 (stereo not shown) [suloctidil]
- In vitro inhibition of acid sphingomyelinase (in words) [2]: in vitro inhibit acid sphingomyelinase with varying degrees

Structure (SMILES): CC/C(=C(\c1ccccc1)c1ccc(OCCN(C)C)cc1)c1ccccc1 [tamoxifen]
- In vitro inhibition of acid sphingomyelinase (in words) [2]: in vitro inhibit acid sphingomyelinase with varying degrees

Structure (SMILES): CC(C)(C)c1ccc(C(O)CCCN2CCC(C(O)(c3ccccc3)c3ccccc3)CC2)cc1 (stereo not shown) [terfenadine]
- In vitro inhibition of acid sphingomyelinase (in words) [2]: in vitro inhibit acid sphingomyelinase with varying degrees

Structure (SMILES): C[C@H]1CC[C@]2(NC1)O[C@H]1C[C@H]3[C@@H]4CC[C@H]5C[C@@H](O)CC[C@]5(C)[C@H]4CC[C@]3(C)[C@H]1[C@@H]2C [tomatidine]
- In vitro inhibition of acid sphingomyelinase (in words) [2]: in vitro inhibit acid sphingomyelinase with varying degrees

Structure (SMILES): CC(CN(C)C)CN1c2ccccc2CCc2ccccc21 (stereo not shown) [trimipramine]
- In vitro inhibition of acid sphingomyelinase (in words) [2]: in vitro inhibit acid sphingomyelinase with varying degrees

Structure (SMILES): COc1ccc(C(CN(C)C)C2(O)CCCCC2)cc1 (stereo not shown) [venlafaxine]
- In vitro inhibition of acid sphingomyelinase (in words) [2]: there are discrepancies whether citalopram, venlafaxine and mirtazapine do have in vitro FIASMA effect
